Data reported in ChEMBL document CHEMBL1201862, “PubChem BioAssay data set” (2004).
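1) Cells in 96-well plates. 2) Compound, 48 h, 5 concentrations. 3) Linear interpolation between surrounding doses. 4) Unreached endpoint = highest concentration. Abbreviation: GI50, concentration required for 50% inhibition of growth.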 Activity calls are given as the source filed them. No stated cut-off is given here; in the data, active = GI50 up to about 1.1 µM and inactive = higher.

How the values were obtained:
Test in all cases: NCI-60 cell line screen, 48 h
[1] = tested on: KM12
[2] = tested on: HCC 2998
[3] = tested on: MCF7
[4] = tested on: DU-145
[5] = tested on: U-251
[6] = tested on: OVCAR-3
[7] = tested on: SN12C
[8] = tested on: OVCAR-8
[9] = tested on: SF-268
[10] = tested on: HL-60
[11] = tested on: OVCAR-5
[12] = tested on: UO-31
[13] = tested on: CCRF-CEM
[14] = tested on: NCI-H23
[15] = tested on: NCI-H226
[16] = tested on: HOP-92
[17] = tested on: PC-3
[18] = tested on: T47D

Measured: GI50

COc1ccc(N[S+]([O-])CCc2ccccc2)cc1 (centres undefined)
inactive: [1] > 100 µM | [2] 94 µM | [3] > 100 µM | [4] > 100 µM | [5] > 100 µM | [6] > 100 µM | [7] > 100 µM | [8] > 100 µM | [9] > 100 µM | [10] > 100 µM | [11] > 100 µM | [12] > 100 µM | [13] > 100 µM | [14] > 100 µM | [15] > 100 µM

N#Cc1c2ccccc2cn1-c1ccc(F)cc1
inactive: [1] 21.8 µM | [2] 43.9 µM | [5] 39.1 µM | [6] 19.8 µM | [8] > 10 µM | [16] 20.6 µM | [9] 24.5 µM | [10] 4.62 µM | [11] 45.6 µM | [12] 8.59 µM | [13] 31 µM | [14] 17.7 µM | [15] 9.27 µM

C=C(CC(=O)Nc1ccc(C(=O)OC)o1)C(=O)OC
inactive: [1] 19.9 µM | [3] 17.9 µM | [4] 31.9 µM | [5] 35 µM | [7] 24.9 µM | [8] 36.9 µM | [16] 29.4 µM | [9] 36.6 µM | [11] 17.1 µM | [12] 20.6 µM | [13] > 10 µM | [17] 23.6 µM | [18] 23.2 µM | [14] 28 µM | [15] 26.5 µM

[O-][S+](CCc1ccccc1)Nc1ccccc1 (centres undefined)
inactive: [1] > 100 µM | [2] > 100 µM | [3] > 100 µM | [4] > 100 µM | [5] > 100 µM | [6] > 100 µM | [7] > 100 µM | [8] > 100 µM | [9] > 100 µM | [10] > 100 µM | [11] > 100 µM | [12] > 100 µM | [13] > 100 µM | [17] > 100 µM | [14] > 100 µM | [15] > 100 µM

COCc1cc2c(cc1/C(=C/[N+](=O)[O-])CS(=O)(=O)c1ccccc1)OCO2
inactive: [2] > 100 µM | [3] > 100 µM | [4] > 100 µM | [5] > 100 µM | [6] > 100 µM | [7] > 100 µM | [8] > 100 µM | [16] > 100 µM | [9] > 100 µM | [10] > 100 µM | [11] > 100 µM | [12] > 100 µM | [13] > 100 µM | [18] > 100 µM | [14] > 100 µM | [15] > 100 µM

CC(C)c1c(O[Si](C(C)C)(C(C)C)C(C)C)c2c3c(ccc4c3c1OC4(C)C)C(C)CC2 (centres undefined)
inactive: [1] > 100 µM | [3] > 100 µM | [4] > 100 µM | [5] > 100 µM | [6] > 100 µM | [7] > 100 µM | [8] > 100 µM | [16] > 100 µM | [9] > 100 µM | [10] > 100 µM | [11] > 100 µM | [12] > 100 µM | [13] > 100 µM | [17] > 100 µM | [14] > 100 µM | [15] > 100 µM

[N-]=[N+]=NC1C(Br)C(=O)NC(=O)N1[C@H]1C[C@H](O)[C@@H](CO)O1 (some centres undefined)
inactive: [1] > 100 µM | [2] > 100 µM | [5] > 100 µM | [6] > 100 µM | [7] > 100 µM | [8] > 100 µM | [16] > 100 µM | [9] > 100 µM | [10] > 100 µM | [11] > 100 µM | [12] > 100 µM | [14] > 100 µM

CSc1nc(SC)c2c(C(N)=S)n[nH]c2n1
inactive: [1] 37.4 µM | [5] 23 µM | [6] 22.1 µM | [7] 36.3 µM | [8] 28.8 µM | [16] 25.2 µM | [9] 31.2 µM | [12] 19 µM | [13] 26.2 µM | [14] 23.8 µM | [15] 19.9 µM
